In US10131652B2, “Pyrimidinyloxy benzene derivatives as herbicides” (E. I. DU PONT DE NEMOURS AND COMPANY, priority 2014, dated 2018):
Like-named read-outs stand apart in the source and are kept apart here.

Legend:
Test in all cases: Test D pre-/postemergence plant response
Assay type in all cases: in vivo
corn (Zea mays) = details: Zea mays; for Corn plant response rating (crop injury, 0 = no effect, 100 = complete kill) at 62 g/ha: 62 g ai/ha
Excerpt: (§1) Seeds of plant species selected from blackgrass (Alopecurus myosuroides), Italian ryegrass (Lolium multiflorum), winter wheat (Triticum aestivum), galium (catchweed bedstraw, Galium aparine), corn (Zea mays), large (Lg) crabgrass (Digitaria sanguinalis), giant foxtail (Setaria faberii), johnsongrass (Sorghum halepense), lambsquarters (Chenopodium album), morningglory (Ipomoea coccinea), yellow nutsedge (Cyperus esculentus), pigweed (Amaranthus retroflexus), ragweed (common ragweed, Ambrosia elatior), soybean (Glycine max), bamyardgrass (Echinochloa crus-galli), oilseed rape (Brassica napus), waterhemp (common waterhemp, Amaranthus rudis), and velvetleaf (Abutilon theophrasti) were planted into a blend of loam soil and sand and treated preemergence with test chemicals formulated in a non-phytotoxic solvent mixture which included a surfactant. At the same time, plants selected from these crop and weed species and also kochia (Kochia scoparia), wild oat (Avena fatua), and chickweed (common chickweed, Stellaria media) were planted in pots containing Redi-Earth® planting medium (Scotts Company, 14111 Scottslawn Road, Marysville, Ohio 43041) comprising spaghnum peat moss, vermiculite, wetting agent and starter nutrients and treated with postemergence applications of test chemicals formulated in the same manner. Plants ranged in height from 2 to 18 cm (1- to 4-leaf stage) for postemergence treatments. Treated plants and controls were maintained in a greenhouse for 13 to 15 days, after which time all species were compared to controls and visually evaluated. Plant response ratings, summarized in Table D, are based on a scale of 0 to 100 where 0 is no effect and 100 is complete control. A dash (-) response means no test result.

[1] = test system: lambsquarters (Chenopodium album); details: Chenopodium album; for pest or weed control at 31 g/ha: 31 g ai/ha; for pest or weed control at 62 g/ha: 62 g ai/ha; for pest or weed control at 125 g/ha: 125 g ai/ha
Excerpt: as §1

[2] = test system: giant foxtail (Setaria faberii); details: Setaria faberi; for pest or weed control at 16 g/ha: 16 g ai/ha; for pest or weed control at 31 g/ha: 31 g ai/ha; for pest or weed control at 62 g/ha: 62 g ai/ha; for pest or weed control at 125 g/ha: 125 g ai/ha
Excerpt: as §1

[3] = test system: yellow nutsedge (Cyperus esculentus); details: Cyperus; for pest or weed control at 31 g/ha: 31 g ai/ha; for pest or weed control at 62 g/ha: 62 g ai/ha; for pest or weed control at 125 g/ha: 125 g ai/ha
Excerpt: as §1

[4] = test system: Italian ryegrass (Lolium multiflorum); details: Lolium multiflorum; for pest or weed control at 31 g/ha: 31 g ai/ha; for pest or weed control at 62 g/ha: 62 g ai/ha; for pest or weed control at 125 g/ha: 125 g ai/ha
Excerpt: as §1

[5] = test system: velvetleaf (Abutilon theophrasti); details: Abutilon theophrasti; for pest or weed control at 31 g/ha: 31 g ai/ha; for pest or weed control at 62 g/ha: 62 g ai/ha; for pest or weed control at 125 g/ha: 125 g ai/ha
Excerpt: as §1

[6] = test system: winter wheat (Triticum aestivum); details: Triticum aestivum; for plant injury at 31 g/ha: 31 g ai/ha; for plant injury at 62 g/ha: 62 g ai/ha; for plant injury at 125 g/ha: 125 g ai/ha
Excerpt: as §1

[7] = test system: morningglory (Ipomoea coccinea); details: Ipomoea; for pest or weed control at 31 g/ha: 31 g ai/ha; for pest or weed control at 62 g/ha: 62 g ai/ha; for pest or weed control at 125 g/ha: 125 g ai/ha
Excerpt: as §1

[8] = test system: ragweed (common ragweed, Ambrosia elatior); details: Ambrosia artemisiifolia; for pest or weed control at 31 g/ha: 31 g ai/ha; for pest or weed control at 62 g/ha: 62 g ai/ha; for pest or weed control at 125 g/ha: 125 g ai/ha
Excerpt: as §1

[9] = post-emergence, Postemergence, scale 0 to 100, 0 no effect, 100 complete control, read-out: Plant response rating, Lambsquarters
[10] = pre-emergence, Preemergence, scale 0 to 100 (0 no effect, 100 complete control), read-out: Plant response rating, Lambsquarters
[11] = post-emergence, Postemergence, scale 0 to 100 (0 no effect, 100 complete control), read-out: Foxtail, Giant plant response rating
[12] = post-emergence, Postemergence, scale 0 to 100, 0 no effect, 100 complete control, read-out: Plant response rating, Foxtail, Giant
[13] = pre-emergence, Preemergence, scale 0 to 100 (0 no effect, 100 complete control), read-out: Plant response rating, Foxtail, Giant
[14] = post-emergence, Postemergence, scale 0 to 100, 0 no effect, 100 complete control, read-out: Plant response rating, Nutsedge, Yellow
[15] = pre-emergence, Preemergence, scale 0 to 100 (0 no effect, 100 complete control), read-out: Plant response rating, Nutsedge, Yellow
[16] = post-emergence, Postemergence, scale 0 to 100, 0 no effect, 100 complete control, read-out: Plant response rating, Ryegrass, Italian
[17] = pre-emergence, Preemergence, scale 0 to 100 (0 no effect, 100 complete control), read-out: Plant response rating, Ryegrass, Italian
[18] = post-emergence, Postemergence, scale 0 to 100, 0 no effect, 100 complete control, read-out: Plant response rating, Velvetleaf
[19] = pre-emergence, Preemergence, scale 0 to 100 (0 no effect, 100 complete control), read-out: Plant response rating, Velvetleaf
[20] = post-emergence, Postemergence, scale 0 to 100, 0 no effect, 100 complete control, read-out: Plant response rating, Wheat
[21] = pre-emergence, Preemergence, scale 0 to 100 (0 no effect, 100 complete control), read-out: Plant response rating, Wheat
[22] = post-emergence, Postemergence, scale 0 to 100, 0 no effect, 100 complete control, read-out: Plant response rating, Morningglory
[23] = pre-emergence, Preemergence, scale 0 to 100 (0 no effect, 100 complete control), read-out: Plant response rating, Morningglory
[24] = post-emergence, Postemergence, scale 0 to 100, 0 no effect, 100 complete control, read-out: Plant response rating, Ragweed
[25] = pre-emergence, Preemergence, scale 0 to 100 (0 no effect, 100 complete control), read-out: Plant response rating, Ragweed

`Fc1cccc(Oc2ncc(Cl)cn2)c1-c1cc(C(F)(F)F)on1` [Compound 168, 5-chloro-2-[2-[5-(trifluoromethyl)-3-isoxazolyl]-3-fluorophenoxy]pyrimidine] gave a plant injury at 16 g/ha (corn (Zea mays); post-emergence, Postemergence, 16 g ai/ha, scale 0 to 100 (0 no effect, 100 complete control), read-out: Corn plant response rating) of 5%, a plant injury at 31 g/ha (corn (Zea mays); post-emergence, Postemergence, 31 g ai/ha, scale 0 to 100 (0 no effect, 100 complete control), read-out: Corn plant response rating) of 5% and a Corn plant response rating (crop injury, 0 = no effect, 100 = complete kill) at 62 g/ha (corn (Zea mays); post-emergence, Postemergence, scale 0 to 100, 0 no effect, 100 complete control) of 10%. It also gave a Corn plant response rating (crop injury, 0 = no effect, 100 = complete kill) at 125 g/ha (corn (Zea mays); post-emergence, Postemergence, 125 g ai/ha, scale 0 to 100, 0 no effect, 100 complete control) of 20%, a plant injury at 125 g/ha (corn (Zea mays); pre-emergence, Preemergence, 125 g ai/ha, read-out: Plant response rating (scale 0 to 100), Corn) of 55% and a Corn plant response rating (crop injury, 0 = no effect, 100 = complete kill) at 16 g/ha (corn (Zea mays); pre-emergence, Preemergence, 16 g ai/ha, scale 0 to 100 (0 no effect, 100 complete control)) of 0%. For the same compound, the Corn plant response rating (crop injury, 0 = no effect, 100 = complete kill) at 31 g/ha (corn (Zea mays); pre-emergence, Preemergence, 31 g ai/ha, scale 0 to 100 (0 no effect, 100 complete control)) was 15%, the Corn plant response rating (crop injury, 0 = no effect, 100 = complete kill) at 62 g/ha (corn (Zea mays); pre-emergence, Preemergence, scale 0 to 100 (0 no effect, 100 complete control)) was 25% and the pest or weed control at 31 g/ha ([1]; post-emergence, Postemergence, scale 0 to 100 (0 no effect, 100 complete control), read-out: Lambsquarters plant response rating) was 85%. It also gave a pest or weed control at 62 g/ha [1, 9] of 85%, a pest or weed control at 125 g/ha [1, 9] of 90% and a pest or weed control at 125 g/ha ([1]; pre-emergence, Preemergence, read-out: Plant response rating (scale 0 to 100), Lambsquarters) of 98%. For the same compound, the pest or weed control at 16 g/ha ([1]; pre-emergence, Preemergence, 16 g ai/ha, scale 0 to 100 (0 no effect, 100 complete control), read-out: Plant response rating, Lambsquarters) was 90%, the pest or weed control at 31 g/ha [1, 10] was 100% and the pest or weed control at 62 g/ha [1, 10] was 100%. For the same compound, the pest or weed control at 16 g/ha [2, 11] was 35%, the pest or weed control at 31 g/ha [2, 11] was 35% and the pest or weed control at 62 g/ha [2, 12] was 40%. It also gave a pest or weed control at 125 g/ha [2, 12] of 60%, a pest or weed control at 125 g/ha ([2]; pre-emergence, Preemergence, read-out: Plant response rating (scale 0 to 100), Foxtail, Giant) of 100% and a pest or weed control at 16 g/ha [2, 13] of 100%. It also gave a pest or weed control at 31 g/ha [2, 13] of 100%, a pest or weed control at 62 g/ha [2, 13] of 100% and a pest or weed control at 31 g/ha ([3]; post-emergence, Postemergence, scale 0 to 100 (0 no effect, 100 complete control), read-out: Nutsedge, Yellow plant response rating) of 5%. The pest or weed control at 62 g/ha [3, 14] was 10%, the pest or weed control at 125 g/ha [3, 14] was 15% and the pest or weed control at 125 g/ha ([3]; pre-emergence, Preemergence, read-out: Plant response rating (scale 0 to 100), Nutsedge, Yellow) was 45%. The pest or weed control at 16 g/ha ([3]; pre-emergence, Preemergence, 16 g ai/ha, scale 0 to 100 (0 no effect, 100 complete control), read-out: Plant response rating, Nutsedge, Yellow) was 5%, the pest or weed control at 31 g/ha [3, 15] was 5% and the pest or weed control at 62 g/ha [3, 15] was 15%. It also gave a pest or weed control at 31 g/ha ([4]; post-emergence, Postemergence, scale 0 to 100 (0 no effect, 100 complete control), read-out: Ryegrass, Italian plant response rating) of 5%, a pest or weed control at 62 g/ha [4, 16] of 5% and a pest or weed control at 125 g/ha [4, 16] of 15%. For the same compound, the pest or weed control at 125 g/ha ([4]; pre-emergence, Preemergence, read-out: Plant response rating (scale 0 to 100), Ryegrass, Italian) was 95%, the pest or weed control at 16 g/ha ([4]; pre-emergence, Preemergence, 16 g ai/ha, scale 0 to 100 (0 no effect, 100 complete control), read-out: Plant response rating, Ryegrass, Italian) was 70% and the pest or weed control at 31 g/ha [4, 17] was 95%. It also gave a pest or weed control at 62 g/ha [4, 17] of 95%, a pest or weed control at 31 g/ha ([5]; post-emergence, Postemergence, scale 0 to 100 (0 no effect, 100 complete control), read-out: Velvetleaf plant response rating) of 40% and a pest or weed control at 62 g/ha [5, 18] of 45%. For the same compound, the pest or weed control at 125 g/ha [5, 18] was 90%, the pest or weed control at 125 g/ha ([5]; pre-emergence, Preemergence, read-out: Plant response rating (scale 0 to 100), Velvetleaf) was 100% and the pest or weed control at 16 g/ha ([5]; pre-emergence, Preemergence, 16 g ai/ha, scale 0 to 100 (0 no effect, 100 complete control), read-out: Plant response rating, Velvetleaf) was 85%. The pest or weed control at 31 g/ha [5, 19] was 100%, the pest or weed control at 62 g/ha [5, 19] was 100% and the plant injury at 31 g/ha ([6]; post-emergence, Postemergence, scale 0 to 100 (0 no effect, 100 complete control), read-out: Wheat plant response rating) was 10%. The plant injury at 62 g/ha [6, 20] was 30%, the plant injury at 125 g/ha [6, 20] was 35% and the plant injury at 125 g/ha ([6]; pre-emergence, Preemergence, read-out: Plant response rating (scale 0 to 100), Wheat) was 85%. For the same compound, the plant injury at 16 g/ha ([6]; pre-emergence, Preemergence, 16 g ai/ha, scale 0 to 100 (0 no effect, 100 complete control), read-out: Plant response rating, Wheat) was 0%, the plant injury at 31 g/ha [6, 21] was 5% and the plant injury at 62 g/ha [6, 21] was 45%. For the same compound, the pest or weed control at 31 g/ha ([7]; post-emergence, Postemergence, scale 0 to 100 (0 no effect, 100 complete control), read-out: Morningglory plant response rating) was 85%, the pest or weed control at 62 g/ha [7, 22] was 85% and the pest or weed control at 125 g/ha [7, 22] was 85%. For the same compound, the pest or weed control at 125 g/ha ([7]; pre-emergence, Preemergence, read-out: Plant response rating (scale 0 to 100), Morningglory) was 100%, the pest or weed control at 16 g/ha ([7]; pre-emergence, Preemergence, 16 g ai/ha, scale 0 to 100 (0 no effect, 100 complete control), read-out: Plant response rating, Morningglory) was 5% and the pest or weed control at 31 g/ha [7, 23] was 70%. The pest or weed control at 62 g/ha [7, 23] was 80%, the pest or weed control at 31 g/ha ([8]; post-emergence, Postemergence, scale 0 to 100 (0 no effect, 100 complete control), read-out: Ragweed plant response rating) was 50% and the pest or weed control at 62 g/ha [8, 24] was 55%. It also gave a pest or weed control at 125 g/ha [8, 24] of 55%, a pest or weed control at 125 g/ha ([8]; pre-emergence, Preemergence, read-out: Plant response rating (scale 0 to 100), Ragweed) of 100% and a pest or weed control at 16 g/ha ([8]; pre-emergence, Preemergence, 16 g ai/ha, scale 0 to 100 (0 no effect, 100 complete control), read-out: Plant response rating, Ragweed) of 35%. It also gave a pest or weed control at 31 g/ha [8, 25] of 45% and a pest or weed control at 62 g/ha [8, 25] of 100%.
